Counter-ions that a name gives are not always drawn.

Regarding `CCN1CCN(c2nc(-c3ccc(C(O)CCO)cc3)cc3ccccc23)CC1` (stereo not drawn) (as salt: hydrochloride) [Example 24, 3-[4-(1,3-dihydroxypropyl)phenyl]-1-(4-ethylpiperazin-1-yl)isoquinoline hydrochloride], the melting point lay in the range of 145 to 147 °C.

Turning to `CCCC(=O)c1ccc(-c2cc3ccccc3c(N3CCN(CC)CC3)n2)cc1` (as salt: hydrochloride), the melting point is 110 to 112.5 °C (dec.). The result for `CCN1CCN(c2nc(-c3ccc([C@@H]4C[C@@H](O)CCO4)cc3)cc3ccccc23)CC1` (relative stereo) (as salt: hydrochloride) [Example 402, 1-(4-Ethylpiperazin-1-yl)-3-[4-(trans-4-Hydroxytetrahydropyran-2-yl)Phenyl]Isoquinoline Dihydrochloride] reads 151 to 152.5 °C (dec.); that for `CCN1CCN(c2nc(-c3ccc(OC)cc3)nc3ccccc23)CC1` (as salt: hydrochloride) [Example 427, 4-(4-ethylpiperazin-1-yl)-2-(4-methoxyphenyl)quinazoline Dihydrochloride], 224.5 to 226 °C (dec.). The result for `CCN1CCN(c2nc(-c3ccc(C(O)CC(C)(C)O)cc3)cc3ccccc23)CC1` (stereo not drawn) (as salt: hydrochloride) [Example 25, 3-[4-(1,3-dihydroxy-3-methylbutyl)phenyl]-1-(4-ethylpiperazin-1-yl)isoquinoline] reads 190 to 192 °C. The result for `CCN1CCN(c2nc(/C=C(\C)c3cccc(N4CCOCC4)c3)cc3ccccc23)CC1` (as salt: oxalate) [Example 207, 3-{(E)-2-Methyl-2-[3-(4-Morpholinyl)Phenyl]Ethenyl}-1-(4-Ethylpiperazin-1-Yl)Isoquinoline Oxalate] reads 190 to 192 °C; that for `CCN1CCN(c2nc(-c3ccc(OC(F)(F)F)cc3)cc3ccccc23)CC1` (as salt: hydrochloride) [Example 339, 1-(4-ethylpiperazin-1-yl)-3-(4-trifluoromethoxyphenyl)isoquinoline dihydrochloride], 113 to 115 °C. As to `COc1ccc(-c2cc3ccccc3c(NCCN3CCOCC3)n2)cc1` (as salt: hydrochloride) [Example 323, 1-[2-(4-morpholinyl)ethyl]amino-3-(4-methoxyphenyl)isoquinoline dihydrochloride], the melting point was 135 to 136 °C.

For the molecule `CCN1CCN(c2nc(-c3ccccn3)cc3ccccc23)CC1` (as salt: hydrochloride) [Example 123, 1-(4-Ethylpiperazin-1-yl)-3-(2-Pyridyl)Isoquinoline Dihydrochloride], the melting point was 160 to 162 °C.

As to `CCN1CCN(c2nc(-c3ccc(CCC(C)(C)O)cc3)cc3ccsc23)CC1` (as salt: hydrochloride) [Example 439, 7-(4-ethylpiperazin-1-yl)-5-[4-(3-hydroxy-3-methylbutyl)phenyl]thieno[2,3-c]pyridine dihydrochloride], the melting point lay within 122 to 133.5 °C.

Consider `CCN1CCN(c2nc(C3CCc4c(OC)cccc43)cc3ccccc23)CC1` (stereo not drawn) (as salt: hydrochloride) [Example 113, 3-(4-Methoxyindan-1-yl)-1-(4-ethylpiperazin-1-yl)isoquinoline Hydrochloride], for which the melting point is 108 to 110 °C. The result for `CCN1CCN(c2nc(-c3ccc(OCCO)nc3)cc3ccsc23)CC1` (as salt: oxalate) [Example 268, 5-[2-(2-hydroxyethoxy)pyridin-5-yl]-7-(4-ethylpiperazin-1-yl)thieno[2,3-c]pyridine Oxalate] reads 124 to 125 °C; that for `CCN1CCN(c2nc(-c3ccc(CC(C)O)cc3)cc3ccccc23)CC1` (stereo not drawn) (as salt: oxalate) [Example 376, 1-(4-ethylpiperazin-1-yl)-3-[4-(2-hydroxypropyl)phenyl]isoquinoline oxalate], 174 to 176 °C; that for `CCN1CCN(c2nc(-c3ccc(S(=O)(=O)CC)cc3)cc3ccsc23)CC1` (as salt: hydrochloride) [Example 450, 7-(4-ethylpiperazin-1-yl)-5-(4-ethanesulfonylphenyl)thieno[2,3-c]pyridine dihydrochloride], 230 to 232 °C (dec.). The value for `CCN1CCN(c2nc(-c3ccc(OC)cc3)cc3cccc(OC)c23)CC1` (as salt: hydrochloride) was 237 to 241 °C; that for `CCCS(=O)(=O)NCc1ccc(-c2cc3ccccc3c(N3CCN(CC)CC3)n2)cc1Cl` (as salt: hydrochloride) [Example 92, 3-(3-Chloro-4-propylsulfonylaminomethylphenyl)-1-(4-ethylpiperazin-1-yl)isoquinoline Hydrochloride] was 253 to 255 °C (dec.); that for `CCN1CCN(c2nc(C3CCCc4c(OC)cccc43)cc3ccccc23)CC1` (stereo not drawn) (as salt: oxalate) was 133 to 136 °C. The value for `CCCC(=O)Nc1ccc(-c2cc3ccccc3c(N3CCN(CC)CC3)n2)cc1` (as salt: hydrochloride) [Example 70, 3-(4-Propylcarbonylaminophenyl]-1-(4-Ethylpiperazin-1-Yl)Isoquinoline Hydrochloride] was 170 to 172 °C. As to `CCCC(=O)NCc1ccc(-c2cc3ccccc3c(N3CCN(CC)CC3)n2)cc1` (as salt: hydrochloride) [Example 86, 3-(4-Propylcarbonylaminomethylphenyl)-1-(4-ethylpiperazin-1-yl)isoquinoline Hydrochloride], the melting point is 126 to 128 °C. The result for `CCN1CCN(c2nc(-c3ccc(CCC(C)(C)O)cc3)cc3sccc23)CC1` (as salt: hydrochloride) [Example 291, 4-[4-ethylpiperazin-1-yl)-6-[4-(3-hydroxy-3-methylbutyl)phenyl]thieno[3,2-c]pyridine dihydrochloride] reads 116 to 117.5 °C; that for `CCN1CCN(c2nc(-c3ccccc3OCCO)cc3ccccc23)CC1` (as salt: hydrochloride) [Example 18, 3-[2-(2-hydroxyethoxy)phenyl]-1-(4-ethylpiperazin-1-yl)isoquinoline hydrochloride], 158 to 160 °C; that for `CCCCNC(=O)Cc1ccc(-c2cc3ccccc3c(N3CCN(CC)CC3)n2)cc1` (as salt: hydrochloride) [Example 89, 3-(4-Butylaminocarbonylmethylphenyl)-1-(4-ethylpiperazin-1-yl)isoquinoline Hydrochloride], 133 to 136 °C.

Consider `CCN1CCN(c2nc(-c3ccc(OCCO)c(C)c3)cc3ccccc23)CC1` (as salt: hydrochloride) [Example 40, 3-[3-methyl-4-(2-hydroxyethoxy)phenyl]-1-(4-ethylpiperazin-1-yl)isoquinoline hydrochloride], for which the melting point fell in the range of 133 to 136 °C. The value for `CCN1CCN(c2nc(/C=C/c3cccc(N4CCOCC4)c3)cc3ccccc23)CC1` (as salt: oxalate) [Example 204, 3-{(E)-2-[3-(4-Morpholinyl)Phenyl]Ethenyl}-1-(4-Ethylpiperazin-1-Yl)Isoquinoline Oxalate] was 180 to 182 °C. Turning to `CCN1CCN(c2nc(-c3ccc(C4=CCOCC4)nc3)cc3ccccc23)CC1` (as salt: oxalate) [Example 155, 3-[2-(5,6-dihydro-2H-pyran-4-yl)pyridin-5-yl]-1-(4-ethylpiperazin-1-yl)isoquinoline oxalate], the melting point is 156 to 159 °C. The value for `CCN1CCN(c2nc(-c3ccc(OC)cc3)cc3ccc(C)cc23)CC1` (as salt: hydrochloride) was 243 to 246 °C; that for `CCN1CCN(c2nc(-c3ccc(OCCOC)cn3)cc3ccccc23)CC1` (as salt: hydrochloride) [Example 127, 1-(1-Ethylpiperazin-4-yl)-3-[5-(2-Methoxyethoxy)Pyridin-2-yl]Isoquinoline] was 116 to 119 °C. The result for `CCN1CCN(c2nc(-c3ccc4c(c3)CC(C)(CO)O4)cc3ccsc23)CC1` (stereo not drawn) (as salt: hydrochloride) [Example 456, dihydrochloride] reads 138 to 140 °C (dec.); that for `CCN1CCN(c2nc(-c3ccc(CCC(C)(C)O)cc3)cc3ccccc23)CC1` (as salt: hydrochloride) [Example 388, 1-(4-Ethylpiperazin-1-yl)-3-[4-(3-Hydroxy-3-Methylbutyl)Phenyl]Isoquinoline Dihydrochloride], 205 to 206 °C; that for `COc1ccc(-c2cc3ccccc3c(N3CCN(C(C)C)CC3)n2)cc1` (as salt: hydrochloride), 220 °C (dec.).

On to `CCN1CCN(c2nc(-c3cnc(N4CCOCC4)s3)cc3ccccc23)CC1` (as salt: hydrochloride) [Example 173, 1-(1-ethylpiperazin-4-yl)-3-[2-(4-morpholinyl)-5-thiazolyl]isoquinoline dihydrochloride], for which the melting point is 265 °C (dec.). The result for `CCN1CCN(c2nc(-c3ccc(CCC(C)O)cc3)cc3ccccc23)CC1` (stereo not drawn) (as salt: oxalate) [Example 22, 1-(4-ethylpiperazin-1-yl)-3-[4-(3-hydroxybutyl)phenyl]isoquinoline oxalate] reads 193 to 194 °C; that for `CCN1CCN(c2nc(C#CCCc3ccccc3)cc3ccccc23)CC1` (as salt: hydrochloride) [Example 182, 1-(1-Ethylpiperazin-4-Yl)-3-[4-Phenyl-1-Butynyl)Isoquinoline Dihydrochloride], 120 to 128 °C.

Molecule `CCN1CCN(c2nc(-c3ccc(CCCO)cc3)cc3cccnc23)CC1` (as salt: hydrochloride) [Example 247, 8-(1-ethylpiperazin-4-yl)-6-[4-(3-hydroxypropyl)phenyl]-1,7-naphthyridine Dihydrochloride] gave a melting point of 119 to 122 °C. The result for `CCN1CCN(c2nc(C(C)c3ccc(OC)cc3)cc3ccccc23)CC1` (stereo not drawn) (as salt: oxalate) [Example 102, 3-[α-Methyl-(4-methoxybenzyl)]-1-(4-ethylpiperazin-1-yl)isoquinoline Oxalate] reads 86 to 88 °C; that for `COc1ccc(-c2cc3ccccc3c(N3CCOCC3)n2)cc1.Cl`, 137 to 139 °C.
